The assay addresses Insulin-like growth factor 1 receptor (Homo sapiens) (UniProt P08069). The assay can be described thus: Inhibition of IGFR1.

Sequence of Insulin-like growth factor 1 receptor (Homo sapiens) (P08069 whole entry, looked up): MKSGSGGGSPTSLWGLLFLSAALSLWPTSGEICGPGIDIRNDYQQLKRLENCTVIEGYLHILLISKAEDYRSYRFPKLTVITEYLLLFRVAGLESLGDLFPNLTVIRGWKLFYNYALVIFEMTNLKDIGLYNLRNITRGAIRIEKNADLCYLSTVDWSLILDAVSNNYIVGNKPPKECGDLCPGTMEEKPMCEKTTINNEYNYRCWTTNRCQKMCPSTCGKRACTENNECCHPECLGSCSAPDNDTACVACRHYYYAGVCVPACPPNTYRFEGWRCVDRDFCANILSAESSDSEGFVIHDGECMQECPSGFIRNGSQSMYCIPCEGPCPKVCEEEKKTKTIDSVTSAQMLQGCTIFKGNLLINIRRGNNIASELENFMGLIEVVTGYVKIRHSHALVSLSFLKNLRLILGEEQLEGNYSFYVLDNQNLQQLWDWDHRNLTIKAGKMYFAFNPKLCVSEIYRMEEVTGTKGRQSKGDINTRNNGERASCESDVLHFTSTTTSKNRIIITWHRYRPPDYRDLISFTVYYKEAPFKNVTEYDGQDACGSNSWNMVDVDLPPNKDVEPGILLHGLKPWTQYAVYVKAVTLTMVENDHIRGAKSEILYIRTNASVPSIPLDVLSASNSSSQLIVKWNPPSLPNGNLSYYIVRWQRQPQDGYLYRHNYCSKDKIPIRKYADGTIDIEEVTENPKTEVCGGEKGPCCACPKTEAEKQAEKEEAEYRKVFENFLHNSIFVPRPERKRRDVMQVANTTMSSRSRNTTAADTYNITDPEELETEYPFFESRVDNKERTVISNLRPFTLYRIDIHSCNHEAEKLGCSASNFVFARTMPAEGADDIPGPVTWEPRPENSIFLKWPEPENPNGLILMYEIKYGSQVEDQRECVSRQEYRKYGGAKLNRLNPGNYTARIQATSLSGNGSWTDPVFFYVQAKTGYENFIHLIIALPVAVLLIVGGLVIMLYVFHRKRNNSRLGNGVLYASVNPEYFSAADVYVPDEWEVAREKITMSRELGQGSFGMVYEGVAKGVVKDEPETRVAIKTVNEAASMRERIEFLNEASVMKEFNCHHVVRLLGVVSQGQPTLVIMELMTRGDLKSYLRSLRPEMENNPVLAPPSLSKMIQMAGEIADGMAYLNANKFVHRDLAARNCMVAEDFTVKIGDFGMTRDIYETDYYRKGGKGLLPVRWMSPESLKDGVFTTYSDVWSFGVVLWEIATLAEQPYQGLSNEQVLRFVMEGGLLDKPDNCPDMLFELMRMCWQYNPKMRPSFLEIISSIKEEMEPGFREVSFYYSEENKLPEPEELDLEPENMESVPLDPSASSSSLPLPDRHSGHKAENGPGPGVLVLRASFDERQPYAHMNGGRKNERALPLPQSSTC

In general, IC50 refers to the concentration needed to halve the response being measured. Low values mean inhibition by little substance, high ones a need for much substance. Regarding `O=C(Nc1ccc(F)cc1F)c1cccnc1Nc1ccc(Oc2ccnc3[nH]ccc23)c(F)c1` [2-(4-(1H-pyrrolo[2,3-b]pyridin-4-yloxy)-3-fluorophenylamino)-N-(2,4-difluorophenyl)nicotinamide], the IC50 was over 50 µM.

The values above are taken from BindingDB's records for doi:10.1016/j.bmcl.2010.01.042 (Bristol Myers Squibb, 2010).
